Assay results as given in patent US20050152835A1, “Technetium-99M glucarate methods of use for monitoring tissues” (priority 2003, published 2005).

Tests used:
[1] = tested on: MCF7/S tumors; assay: Biodistribution in mice bearing MCF7/S tumors; format: in vivo, SCID mice
Procedure: Tumor cell lines used. MCF7/S: Cells are parental, drug (doxorubicin) sensitive, breast carcinoma cells. MCF7/D40: Cells were generated in vitro by successive culturing parental MCF7 cells in slowly increasing concentrations of doxorubicin with a total selection time of 31 months. Twenty-eight SCID mice were studied. MCF7/S or MCF7/D40 tumors were grown for 10-14 days after subcutaneous injection of 1×10^6 cells into the right thigh. Groups of mice with the xenografted tumors included: (MCF7/S group: MIBI: n=9; GLA: n=8) and (MCF7/D40 group: MIBI: n=6; GLA: n=5).
^99mTc-GLA or ^99mTc-MIBI (5-8 mCi, 185-296 MBq) was injected via a jugular vein catheter. Dynamic images were acquired for 2 hours. Twenty-four projections were obtained, one from each camera. Each scintillation event within the camera's NaI crystal was registered as the digitized outputs from the camera's four photomultiplier tubes. The four photomultiplier outputs were compared to a 20-bit look-up table derived from a calibration procedure that involved moving a collimated source across the camera face.
Tumors and organs were harvested and counted in a dose calibrator. The percent injected dose per gram (% ID/g) was calculated. Membrane preparations made from MCF7/S and MCF7/D40 tumors were immunoblotted with the mouse monoclonal antibody C219 against Pgp followed by a secondary antibody, which was detected by chemiluminescence. […] No immunodetectable MDR1 Pgp was presented in MCF7/S cells.

[2] = tested on: infarcted hearts; settings: isoproterenol-induced myocardial infarction; cited from earlier work
[3] = Table 2, MCF7/S mice, 2 hours after injection
[4] = Table 4 (Example 3), MCF7/S mice

^99mTc-glucarate
tumor-to-muscle ratio relative to that for 99mTc-sestamibi (fold higher) ([1]; MCF7/S tumors, 2 hours after injection): 9.4 fold
Biodistribution, blood [1, 3]: 1.13 ± 0.16 % ID/gm
Biodistribution, heart [1, 3]: 0.64 ± 0.08 % ID/gm
Biodistribution, kidneys [1, 3]: 22.70 ± 1.38 % ID/gm
Biodistribution, liver [1, 3]: 2.04 ± 0.37 % ID/gm
Biodistribution, lung [1, 3]: 1.08 ± 0.10 % ID/gm
Biodistribution, muscle [1, 3]: 0.27 ± 0.02 % ID/gm
Biodistribution, tumor [1, 3]: 1.15 ± 0.17 % ID/gm
Biodistribution, blood [1, 4]: 1.19 ± 0.17 % ID/g
Biodistribution, heart [1, 4]: 0.70 ± 0.09 % ID/g
Biodistribution, kidneys [1, 4]: 22.59 ± 1.38 % ID/g
Biodistribution, liver [1, 4]: 2.10 ± 0.35 % ID/g
Biodistribution, lung [1, 4]: 1.15 ± 0.11 % ID/g
Biodistribution, muscle [1, 4]: 0.29 ± 0.02 % ID/g
Biodistribution, tumor [1, 4]: 1.16 ± 0.17 % ID/g
Tumor/Blood ratio [1, 4]: 1.13 ± 0.23
Tumor/Muscle ratio [1, 4]: 4.37 ± 0.89
mean tumor-to-muscle ratio ([1]; drug-sensitive tumors (MCF7/S)): 4.5
uptake in infarcted hearts relative to normal rats [2]: 6 times
